Measured values from patent publication US7550469B2, “Heterocyclic amide derivatives and their use as dopamine D3 receptor ligands” (Aventis Pharmaceuticals Inc., priority 2001, dated 2009).
pKi: −log10 of the molar value. Where two headings read alike, the source gives them in different places. One block for each compound: values may come before it.

Assays:
[1] = molecular target: T1, cloned human alpha-1A adrenergic receptors (α1a) (Homo sapiens, UniProt P35348); assay: [3H]Prazosin binding to cloned human alpha-1A adrenergic receptors expressed in CHO cells; details: human α-1; 6-fluoro vs 6-trifluoromethyl benzo[b]thiophene pairs; read-out: halpha 1 Ki (nM) h = human
T1 construct: expressed in transfected cells; host or cells: CHO cells, G418-resistant clone, pcDNA3 vector; membrane fragments
T1 sequence (P35348 1-466): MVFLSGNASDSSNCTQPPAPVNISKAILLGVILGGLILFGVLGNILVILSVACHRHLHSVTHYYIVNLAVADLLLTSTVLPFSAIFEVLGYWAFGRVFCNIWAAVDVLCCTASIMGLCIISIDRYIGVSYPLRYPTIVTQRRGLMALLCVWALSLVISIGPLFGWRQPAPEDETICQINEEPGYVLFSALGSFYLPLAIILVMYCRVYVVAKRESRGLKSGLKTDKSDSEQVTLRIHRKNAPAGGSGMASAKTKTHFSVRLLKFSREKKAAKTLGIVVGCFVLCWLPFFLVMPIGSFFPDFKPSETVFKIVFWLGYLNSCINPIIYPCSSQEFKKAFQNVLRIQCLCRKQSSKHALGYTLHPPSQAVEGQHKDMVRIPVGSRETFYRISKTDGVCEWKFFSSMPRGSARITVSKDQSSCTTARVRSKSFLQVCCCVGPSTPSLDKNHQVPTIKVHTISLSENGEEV
Excerpt: ^3H]PRAZOSIN BINDING TO CLONED HUMAN ALPHA-1A ADRENERGIC RECEPTORS (α1a) EXPRESSED IN CHINESE HAMSTER OVARY CELLS (CHO)
Purpose: This in vitro assay is designed as a screen to identify compounds displaying a affinity for the human α1a adrenoceptor subtype expressed in the membrane fragments of CHO cells. The assay measures the ability of the test compounds to displace [^3H] prazosin from α1a sites. • The identification of multiple vascular α1-addrenoceptors (α1a, α1b, α1d) in vitro has provided impetus to define the role(s) of these subtypes in cardiovascular regulation in vivo (Vargas and Gorman, 1995). […] Prazosin is a potent antagonist of the human α1a-adrenoceptor subtype, which has been cloned and is expressed in the membrane fragments of CHO cells. hα1a Receptor: The cloning of the human α1a cDNA was accomplished first by screening a human prostate cDNA library (Clontech), from which a portion of the coding region was obtained. This DNA fragment was then used to screen a human leukocyte genomic library (Clontech), and the rest of the coding sequence was obtained. Later these two fragments were spliced together. The entire coding sequence was then fully sequenced including matching PCR sequence with original genomic coding sequence, thus ensuring splice sites were joined correctly (Schwinn et al., 1995). Once sequenced, the gene was subcloned into the expression vector pcDNA3 (Invitrogen). Plasmid DNA was then used for transfection into CHO cells and G418 resistant clones were isolated. A clone expressing high levels of the hα1a receptor (as determined by mRNA and receptor binding data) was chosen and pharmacologically characterized. Culture Media: Media Ingredients for Adherent α1a expressing CHO Culture: • A. HAM's F-12 (Cellgro) • B. 10% 0.2 micron filtered Fetal Bovine Serum (FBS)(Cellgro) • C. 1% 0.2 micron filtered Penicillin-Streptomycin (Celigro) • D. G418 0.2 micron filtered (Geneticin 400 μg/ml)(Cellgro) • Cells are cultured using established methods and procedures in either 150×25 mm culture plates (scale up to 100 plates) or a combination of these plates and 70 roller bottles. One culturing/harvest cycle typically requires 2 weeks and yields between 100-400 mg protein. Plates or bottles are incubated at 37° C.+5% CO2. Storage: Cells are harvested by mechanical scraping, washed using PBS, collected in 250 ml Corning polypropylene centrifuge tubes, spun down (1500RPM) and resuspended in dH2O 10% DMSO (final volume per harvest is approximately 50 ml). Protein determination is made using the Biorad DC Assay Kit. Finally, the appropriate volume is aliquoted into a 2 ml Corning Cryovial (10 mg/1-1.5 ml) which is stored at −80° C. Current Lot Data:
Assay Requirement: 0.5 cryovials per 96 well plate (assay volume=200 μl/well) [^3H]-Ligand: [7-methoxy-^3H]-Prazosin: 1.0 nM (NEN, NET-823) • 70-87 Ci/mmol Materials: Phentolamine mesylate (Research Biochemicals Int. #P-131) • 96 well flat bottom plates (Beckman) • Unifilter GF/B Plate (Packard) • Polyethylenimine (Sigma #P-3134) • TomTec or Packard Filtermate 196 Cell Harvesters • Packard TopCount Scintillation Counter Buffers: A: 50 mM Tris HCl; 0.1% ascorbate, pH 7.7 (incubation buffer) • B: 50 mM Tris HCl; pH 7.7 (wash buffer) Procedure: Assay additions are as follows (in the order indicated): • Total Binding=50 μl buffer A+50 μl [^3H]prazosin+100 μl membrane • Nonsp. Bd.=50 μl 10 μM phentolamine+50 μl [^3H]prazosin+100 μl membrane • Test Cpd.=50 μl compound+50 μl [^3H]prazosin+100 μl membrane • Compounds to be evaluated are weighed out to yield a 10 mM stock solution in DMSO in a 24 well polystyrene plate. This is diluted to a 0.5 mM stock in dH2O. Serial dilutions in Buffer A are made from which 50 μl additions to the plate are made in duplicate in order to achieve the final concentrations desired. Typically, one 96 well plate is used to evaluate 11 compounds at 4 concentrations (10^−6-10^−9 M) in duplicate. […]

[2] = molecular target: Alpha-1 adrenergic receptors from rat brain cortex; assay: [3H]Prazosin binding to alpha-1 adrenergic receptors from rat brain cortex (Protocol 4)
Excerpt: [^3H]Prazosin Binding to Alpha-1 Adrenergic Receptors from Rat Brain Cortex
Objective: This in vitro assay is designed as a screen to identify compounds displaying a affinity for the a, adrenoceptor subtype in membranes from rat cortex. It measures the ability of the test compounds to displace [^3H]prazosin from the α1 sites.
Membrane Preparation: Rat brain tissue can be obtained from either fresh (male Wistar rats; 200-250 g) or frozen (male Sprague-Dawley 200-250 g from Harlan; cat. #BT-403) stocks. The cortex is dissected, homogenized in 50 vol (wet weight) ice-cold 50 mM Tris buffer (pH 7.7 at 25° C.). The homogenate is centrifuged at 48,000 g for 10 min, the pellet is resuspended in 50 mM Tris buffer and centrifuged a second time. The second pellet (P2) is resuspended to yield a concentration of 115 mg wet weight per 10 ml. […] Membranes should be mixed just before addition to ensure an even suspension. […] This is diluted to a 0.5 mM stock in dH2O. Serial dilutions in Buffer A are made from which 50 μl additions to the plate are made in duplicate in order to achieve the final concentrations desired. Typically, one 96 well plate is used to evaluate 11 compounds at 4 concentrations (10^−6-10^−9 M) in duplicate. Total binding and nonspecific binding are determined in quadruplicate. Usually one standard is run with each assay. • [^3H]Prazosin is made up in Buffer A such that when 50 μl are added per well the final concentration is […] in a final assay volume of 200 μl. The final concentration should be verified by running a sample in a scintillation counter prior to adding the [^3H]prazosin to the 96 well plate. Note: The radioactivity should be prepared just before the additions are made so that it is not allowed to sit on the bench for very long. • Packard GF/B Plate Pretreatment: The filter plates are presoaked for at least 30 min in ice cold Buffer B containing 0.05% polyethyleneimine (200 μl/200 ml) to maximize filtration efficiency and minimize filter blank binding. • Incubation & Filtration: Once buffer, compounds, [^3H]prazosin and membrane have been added (and mixed), the 96 well plates are incubated for 40 min at 37° C. and spaced 3-5 min apart. At 40 min, the plates are filtered using a Tomtec Automated Cell Harvester. Filtration is immediately followed by washes of ice cold Buffer B (total vol. ˜7 ml). • Drying and Counting: Each filter plate is dried under a heat lamp for 15 min. The back of the plate is sealed and 40 μl of Packard microscint fluid are added per well. Using Packard film, each plate is heat sealed prior to being counted in a Packard Topcount Scintillation counter. A program has been written that counts each plate twice sending DPM, CPM and TSIS data to disk and printer. • Analysis of Results: Raw DPM and CPM data are captured on disk and are imported into one of several software packages (Graphpad Prism Ver 2.0, Excel) residing on the LAN. Specific binding is defined as the difference between total binding and the binding in the presence of 10 μM phentolamine. Total binding is less than 10% of the total added ligand. Software using one-site competition curve analysis is employed in the calculation of IC50 and KI (Cheng-Prusoff equation, 1973). The top and bottom of the non-linear regression are held constant at 0% and 100% inhibition. The percent inhibition at each drug concentration is the mean of duplicate determinations.

[3] = rat α-1, read-out: rat alpha 1 Ki
[4] = r = rat, piperazines (n = 1) vs homopiperazines (n = 2), read-out: r-α1 Ki

SMILES: Cl.c1cc2onc(C3CCNCC3)c2s1
- melting point: 263 to 265 °C

SMILES: O=C(NCCCCN1CCN(c2csc3cc(F)ccc23)CC1)c1ccc(-c2ccccc2)cc1 [813585A]
- Ki [1]: 5.67 nM

SMILES: CCCCOc1ccc(C(=O)NCCCCN2CCN(c3csc4cc(F)ccc34)CC2)cc1 [compound 813376]
- pKi [2, 3]: 7.96

SMILES: O=C(NCCCCN1CCN(c2csc3cc(F)ccc23)CC1)c1sc2ccccc2c1Cl [compound 813377]
- pKi [2, 3]: 7.81

SMILES: CCOc1ccc(C(=O)NCCCCN2CCN(c3csc4cc(F)ccc34)CC2)cc1 [compound 813914]
- pKi [2, 3]: 8.52

SMILES: O=C(NCCCCN1CCN(c2csc3cc(F)ccc23)CC1)c1c(F)cccc1F [compound 813918]
- pKi [2, 3]: 8.40

SMILES: O=C(NCCCCN1CCN(c2csc3cc(F)ccc23)CC1)c1ccc(F)cc1F [compound 813920]
- pKi [2, 3]: 8.70

Other lines, results leading:

- pKi [2, 3]: 8.59
SMILES: O=C(NCCCCN1CCN(c2csc3cc(F)ccc23)CC1)c1ccc2c(c1)OCO2 [compound 813375]

- pKi [2, 4]: 7.66
SMILES: COc1cccc(C(=O)NCCCCN2CCN(c3csc4cc(F)ccc34)CC2)c1 [compound 813380]

- pKi [2, 3]: 7.49
SMILES: O=C(NCCCCN1CCN(c2csc3cc(F)ccc23)CC1)c1ccc(Br)cc1 [compound 813381]

- pKi [2, 3]: 8.15
SMILES: O=C(NCCCCN1CCN(c2csc3cc(F)ccc23)CC1)c1ccc(Cl)cc1 [compound 813754]

- pKi [2, 4]: 8.30
SMILES: O=C(NCCCCN1CCN(c2csc3cc(F)ccc23)CC1)c1ccc2[nH]ccc2c1 [compound 814018]

- pKi [2, 4]: 7.92
SMILES: O=C(NCCCCN1CCN(c2csc3cc(F)ccc23)CC1)c1c[nH]c2ccccc12 [compound 814026]
